Results published in patent publication US4902799A, “Bicyclic alkoxy- and alkylthio-substituted aminoalcohols” (Maggioni-Winthrop S.p.A., priority 1985, dated 1990).
Where two headings read alike, the source gives them in different places.

Legend:
[1] = tested on: Normolipemic rats; experiment: Hypolipemic activity in normolipemic rats; format: in vivo, rat (Sprague Dawley Nos male rats); details: for CHOL-HDL (in words) / serum TG (in words): oral
[2] = tested on: Normolipemic rats; details: "as known"; cited from earlier work
[3] = tested on: male mice; experiment: Anti-hypoxic activity (gasping time after decapitation); format: in vivo; details: Mus musculus, po, read-out: Gasping time, % diff. from control
[4] = in vivo; details: mouse, po
[5] = tested on: platelet aggregation; experiment: Collagen-induced platelet aggregation ex vivo; format: in vivo, rat; details: 0.15 mM/kg oral, blood 1 hr after treatment, collagen 2-4 mcg/ml
[6] = tested on: toxic adrenaline doses; experiment: animal or person; format: in vivo, mouse (male mice CrI:CD 1(CR) BR); details: Mus musculus, po, 24 h, read-out: PD50 (50% protective dose)
[7] = tested on: male mice; details: mouse, in vivo, po
[8] = 100 mg/kg/p.o., pretreatment 90 min

Question: Which results are given for CCOC(=O)C(C)(C)Oc1ccc(Cl)cc1 [Clofibrate, reference compound]?
Answer: CHOL, % different from control ([1]; 0.82 mM/kg/p.o. × 4 days): -15.0%; CHOL-HDL, % different from control ([1]; 0.82 mM/kg/p.o. × 4 days): 0%; Liver Weight, % different from control ([1]; 0.82 mM/kg/p.o. × 4 days): +19.5%; TG, % different from control ([1]; 0.82 mM/kg/p.o. × 4 days): -40.0%; liver increase (in words) [2]: significative liver increase

Question: For Fc1ccc(C(c2ccc(F)cc2)N2CCN(C/C=C/c3ccccc3)CC2)cc1 [Flunarizine, reference compound], which change in vivo at 50 mg/kg ([3]; 50 mg/kg/p.o., pretreatment 90 min) is on record?
Answer: 68.7%

Question: With CSc1ccc2cc(C(O)C(C)N3CCN(C(=O)c4ccco4)CC3)ccc2c1 (centres unmarked) [MG 28451, 2-[4-(2-Furoyl)-1-piperazinyl]-1-(6-methylthio-2-naphthyl)-propanol] as the compound, how does the “CHOL, % different from control” value ([1]; 0.37 mM/kg/p.o. × 4 days) read?
Answer: -13.5%

Question: What about the “CHOL-HDL, % different from control” value ([1]; 0.37 mM/kg/p.o. × 4 days) of the same compound?
Answer: +46.5%

Question: And the “Liver Weight, % different from control” value ([1]; 0.37 mM/kg/p.o. × 4 days)?
Answer: +9.2%

Question: What about the “TG, % different from control” value ([1]; 0.37 mM/kg/p.o. × 4 days) of the same compound?
Answer: -48.2%

Question: And the “CHOL-HDL (in words)” value [1]?
Answer: increase of CHOL-HDL

Question: And the “serum TG (in words)” value [1]?
Answer: significative decrease of serum TG

Question: And the LD50 [4]?
Answer: > 1000 mg/kg

Question: Which “CHOL, % different from control” value ([1]; 0.185 mM/kg/p.o. × 4 days) does the source give for CSc1ccc2cc(C(O)C(C)N3CCN(C(=O)c4cccnc4)CC3)ccc2c1 (centres unmarked) [MG 28453, 2-[4-(3-Pyridinylcarbonyl)-1-piperazinyl]-1-(6-methylthio-2-naphthyl)-propanol] here?
Answer: +8.5%

Question: What about the “CHOL-HDL, % different from control” value ([1]; 0.185 mM/kg/p.o. × 4 days) of the same compound?
Answer: +45.2%

Question: And the “Liver Weight, % different from control” value ([1]; 0.185 mM/kg/p.o. × 4 days)?
Answer: +2.8%

Question: What about the “TG, % different from control” value ([1]; 0.185 mM/kg/p.o. × 4 days) of the same compound?
Answer: -36.4%

Question: And the “CHOL, % different from control” value ([1]; 0.37 mM/kg/p.o. × 4 days)?
Answer: -26.9%

Question: And the “CHOL-HDL, % different from control” value ([1]; 0.37 mM/kg/p.o. × 4 days)?
Answer: +31.7%

Question: And the “Liver Weight, % different from control” value ([1]; 0.37 mM/kg/p.o. × 4 days)?
Answer: +21.6%

Question: What about the “TG, % different from control” value ([1]; 0.37 mM/kg/p.o. × 4 days) of the same compound?
Answer: -75.4%

Question: What about the “CHOL-HDL (in words)” value [1] of the same compound?
Answer: increase of CHOL-HDL

Question: And the “serum TG (in words)” value [1]?
Answer: significative decrease of serum TG

Question: For COc1ccc2cc(C(O)C(C)N3CCN(C(=O)C=Cc4cc(OC)c(OC)c(OC)c4)CC3)ccc2c1 (centres unmarked) [MG 28472, 2-[4-(1-Oxo-3-(3,4,5-trimethoxyphenyl)-2-propenyl)-1-piperazinyl]-1-(6-methoxy-2-naphthyl)-propanol], which “% Inhibition, Aggregation rate” value [5] is on record?
Answer: 65.3%

Question: And the “% Inhibition, Maximum aggregation” value [5]?
Answer: 75.7%

Question: For COc1ccc2cc(C(O)C(C)N3CCN(c4ccccc4)CC3)ccc2c1 (centres unmarked) [MG 38068, 2-(4-Phenyl-1-piperazinyl)-1-(6-methoxy-2-naphthyl)-propanol], which “% Inhibition, Aggregation rate” value [5] is on record?
Answer: 54.4%

Question: What about the “% Inhibition, Maximum aggregation” value [5] of the same compound?
Answer: 58.8%

Question: What about the “CHOL, % different from control” value ([1]; 0.185 mM/kg/p.o. × 4 days) of the same compound?
Answer: -3.7%

Question: And the “CHOL-HDL, % different from control” value ([1]; 0.185 mM/kg/p.o. × 4 days)?
Answer: +5.0%

Question: What about the “Liver Weight, % different from control” value ([1]; 0.185 mM/kg/p.o. × 4 days) of the same compound?
Answer: +2.6%

Question: What about the “TG, % different from control” value ([1]; 0.185 mM/kg/p.o. × 4 days) of the same compound?
Answer: -45.0%

Question: What about the “CHOL, % different from control” value ([1]; 0.37 mM/kg/p.o. × 4 days) of the same compound?
Answer: -21.8%

Question: What about the “CHOL-HDL, % different from control” value ([1]; 0.37 mM/kg/p.o. × 4 days) of the same compound?
Answer: +32.9%

Question: And the “Liver Weight, % different from control” value ([1]; 0.37 mM/kg/p.o. × 4 days)?
Answer: +0.3%

Question: And the “TG, % different from control” value ([1]; 0.37 mM/kg/p.o. × 4 days)?
Answer: -56.9%

Question: What about the “CHOL-HDL (in words)” value [1] of the same compound?
Answer: increase of CHOL-HDL

Question: What about the “serum TG (in words)” value [1] of the same compound?
Answer: significative decrease of serum TG

Question: And the LD50 [4]?
Answer: > 1000 mg/kg

Question: With COc1ccc2cc(C(O)C(C)N3CCN(C(=O)C=Cc4ccccc4)CC3)ccc2c1 (centres unmarked) [MG 38071, 2-[4-(1-Oxo-3-phenyl-2-propenyl)-1-piperazinyl]-1-(6-methoxy-2-naphthyl)-propanol] as the compound, how does the change in vivo at 100 mg/kg [3, 8] read?
Answer: 32.7%

Question: With CCCCCCCCNC(C)C(O)c1ccc2cc(OC)ccc2c1 (centres unmarked) [MG 38077] as the compound, how does the change in vivo at 100 mg/kg [3, 8] read?
Answer: 71%

Question: Which “% Inhibition, Aggregation rate” value [5] does the source give for COc1ccc2cc(C(O)C(C)N3CCN(C(=O)c4ccco4)CC3)ccc2c1 (centres unmarked) [MG 38078, 2-[4-(2-Furoyl)-1-piperazinyl]-1-(6-methoxy-2-naphthyl)-propanol] here?
Answer: 64.0%

Question: What about the “% Inhibition, Maximum aggregation” value [5] of the same compound?
Answer: 70.4%

Question: What about the LD50 [4] of the same compound?
Answer: > 2000 mg/kg

Question: Which ED50 [6] does the source give for COc1ccc2cc(C(O)C(C)N3CCN(c4ccccc4)CC3)ccc2c1 (centres unmarked) [MG 38088, 2-(4-Phenyl-1-piperazinyl)-1-(6-methoxy-2-naphthyl)-propanol] here?
Answer: 13.5 mg/kg

Question: What about the “% Inhibition, Aggregation rate” value [5] of the same compound?
Answer: 75.1%

Question: And the “% Inhibition, Maximum aggregation” value [5]?
Answer: 68.6%

Question: And the “CHOL, % different from control” value ([1]; 0.185 mM/kg/p.o. × 4 days)?
Answer: -35.1%

Question: What about the “CHOL-HDL, % different from control” value ([1]; 0.185 mM/kg/p.o. × 4 days) of the same compound?
Answer: -9.1%

Question: What about the “Liver Weight, % different from control” value ([1]; 0.185 mM/kg/p.o. × 4 days) of the same compound?
Answer: 0%

Question: What about the “TG, % different from control” value ([1]; 0.185 mM/kg/p.o. × 4 days) of the same compound?
Answer: -70.5%

Question: What about the “CHOL, % different from control” value ([1]; 0.37 mM/kg/p.o. × 4 days) of the same compound?
Answer: -41.3%

Question: What about the “CHOL-HDL, % different from control” value ([1]; 0.37 mM/kg/p.o. × 4 days) of the same compound?
Answer: +5.4%

Question: And the “Liver Weight, % different from control” value ([1]; 0.37 mM/kg/p.o. × 4 days)?
Answer: +3.4%

Question: And the “TG, % different from control” value ([1]; 0.37 mM/kg/p.o. × 4 days)?
Answer: -68.5%

Question: What about the change in vivo at 100 mg/kg [3] of the same compound?
Answer: 46.8%

Question: What about the LD50 [7] of the same compound?
Answer: higher than 1000 mg/kg
